Laboratory results as given in US20170190671A1, “BIS(ARYL)CATECHOL DERIVATIVES AS HERBICIDES” (E I DU PONT DE NEMOURS AND COMPANY, priority 2014, published 2017).

Legend:
[1] = test system: Italian ryegrass (Lolium multiflorum); experiment: Test C preemergence; format: in vivo; conditions: Lolium multiflorum, pre-emergence, 336 h, preemergence, scale 0 to 100, read-out: Plant response rating, Ryegrass, Italian
In short: (§1)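 0-100 visual injury score (100 = complete control), assessed at 13-15 d after treatment against controls; surfactant-containing solvent formulation applied preemergence to seeded loam-sand soil or sprayed onto 1- to 4-leaf greenhouse plants.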

[2] = test system: barnyardgrass (Echinochloa crus-galli); experiment: Test C preemergence; format: in vivo; conditions: Echinochloa crus-galli, pre-emergence, preemergence, scale 0 to 100, read-out: Plant response rating, Barnyardgrass
In short: as §1

[3] = test system: blackgrass (Alopecurus myosuroides); experiment: Test C preemergence; format: in vivo; conditions: Alopecurus myosuroides, pre-emergence, 336 h, preemergence, scale 0 to 100, read-out: Plant response rating, Blackgrass
In short: as §1

corn (Zea mays) = experiment: Test C preemergence; format: in vivo; conditions: Zea mays, pre-emergence, 336 h, preemergence, scale 0 to 100
In short: as §1

[4] = test system: giant foxtail (Setaria faberii); experiment: Test C preemergence; format: in vivo; conditions: Setaria faberi, pre-emergence, 336 h, preemergence, scale 0 to 100, read-out: Plant response rating, Foxtail, Giant
In short: as §1

[5] = test system: johnsongrass (Sorghum halepense); experiment: Test C preemergence; format: in vivo; conditions: Sorghum halepense, pre-emergence, 336 h, preemergence, scale 0 to 100, read-out: Plant response rating, Johnsongrass
In short: as §1

[6] = test system: large (Lg) crabgrass (Digitaria sanguinalis); experiment: Test C preemergence; format: in vivo; conditions: Digitaria sanguinalis, pre-emergence, 336 h, preemergence, scale 0 to 100, read-out: Plant response rating, Crabgrass, Large
In short: as §1

[7] = test system: morningglory (Ipomoea coccinea); experiment: Test C preemergence; format: in vivo; conditions: Ipomoea, pre-emergence, 336 h, preemergence, scale 0 to 100, read-out: Plant response rating, Morningglory
In short: as §1

[8] = test system: oilseed rape (Brassica napus); experiment: Test C preemergence; format: in vivo; conditions: Brassica napus, pre-emergence, preemergence, scale 0 to 100, read-out: Plant response rating, Oilseed Rape
In short: as §1

[9] = test system: pigweed (Amaranthus retroflexus); experiment: Test C preemergence; format: in vivo; conditions: Amaranthus retroflexus, pre-emergence, 336 h, preemergence, scale 0 to 100, read-out: Plant response rating, Pigweed
In short: as §1

[10] = test system: ragweed (common ragweed, Ambrosia elatior); experiment: Test C preemergence; format: in vivo; conditions: Ambrosia artemisiifolia, pre-emergence, 336 h, preemergence, scale 0 to 100, read-out: Plant response rating, Ragweed
In short: as §1

soybean (Glycine max) = experiment: Test C preemergence; format: in vivo; conditions: Glycine max, pre-emergence, preemergence, scale 0 to 100, read-out: Plant response rating, Soybean
In short: as §1

[11] = test system: velvetleaf (Abutilon theophrasti); experiment: Test C preemergence; format: in vivo; conditions: Abutilon theophrasti, pre-emergence, preemergence, scale 0 to 100, read-out: Plant response rating, Velvetleaf
In short: as §1

[12] = test system: waterhemp (common waterhemp, Amaranthus rudis); experiment: Test C preemergence; format: in vivo; conditions: Amaranthus tuberculatus, pre-emergence, preemergence, scale 0 to 100, read-out: Plant response rating, Waterhemp
In short: as §1

[13] = test system: winter wheat (Triticum aestivum); experiment: Test C preemergence; format: in vivo; conditions: Triticum aestivum, pre-emergence, 336 h, preemergence, scale 0 to 100, read-out: Plant response rating, Wheat
In short: as §1

[14] = test system: chickweed (common chickweed, Stellaria media); experiment: Test C postemergence; format: in vivo; conditions: Stellaria media, post-emergence, Postemergence, scale 0 to 100, read-out: Plant response rating, Chickweed
[15] = test system: galium (catchweed bedstraw, Galium aparine); experiment: Test C postemergence; format: in vivo; conditions: Galium, post-emergence, 336 h, Postemergence, scale 0 to 100, read-out: Plant response rating, Galium
kochia (Kochia scoparia) = experiment: Test C postemergence; format: in vivo; conditions: Bassia scoparia, post-emergence, Postemergence, scale 0 to 100, read-out: Plant response rating, Kochia
[16] = test system: pigweed (Amaranthus retroflexus); experiment: Test C postemergence; format: in vivo; conditions: Amaranthus retroflexus, post-emergence, 336 h, Postemergence, scale 0 to 100, read-out: Plant response rating, Pigweed
[17] = test system: waterhemp (common waterhemp, Amaranthus rudis); experiment: Test C postemergence; format: in vivo; conditions: Amaranthus tuberculatus, post-emergence, Postemergence, scale 0 to 100, read-out: Plant response rating, Waterhemp
wild oat (Avena fatua) = experiment: Test C postemergence; format: in vivo; conditions: Avena fatua, post-emergence, Postemergence, scale 0 to 100, read-out: Plant response rating, Oat, Wild
[18] = test system: yellow nutsedge (Cyperus esculentus); experiment: Test C postemergence; format: in vivo; conditions: Cyperus, post-emergence, 336 h, Postemergence, scale 0 to 100, read-out: Plant response rating, Nutsedge, Yellow

## Fc1cnc(Oc2c(F)cccc2Oc2ncc(Cl)cn2)nc1 [Compound 23]
[1]; 31 g ai/ha
  pest or weed control at 31 g/ha: 5%
[1]; 62 g ai/ha
  pest or weed control at 62 g/ha: 75%
[1]; 125 g ai/ha
  pest or weed control at 125 g/ha: 85%
[1]; 250 g ai/ha
  pest or weed control at 250 g/ha: 90%
[2]; 31 g ai/ha
  pest or weed control at 31 g/ha: 75%
[2]; 62 g ai/ha
  pest or weed control at 62 g/ha: 100%
[2]; 125 g ai/ha
  pest or weed control at 125 g/ha: 100%
[2]; 250 g ai/ha
  pest or weed control at 250 g/ha: 100%
[3]; 31 g ai/ha
  pest or weed control at 31 g/ha: 65%
[3]; 62 g ai/ha
  pest or weed control at 62 g/ha: 85%
[3]; 125 g ai/ha
  pest or weed control at 125 g/ha: 95%
Corn (Zea mays); 31 g ai/ha
  Corn plant response rating (crop injury, 0 = no effect, 100 = complete kill) at 31 g/ha: 5%
Corn (Zea mays); 62 g ai/ha
  Corn plant response rating (crop injury, 0 = no effect, 100 = complete kill) at 62 g/ha: 35%
Corn (Zea mays); 125 g ai/ha
  Corn plant response rating (crop injury, 0 = no effect, 100 = complete kill) at 125 g/ha: 70%
[4]; 31 g ai/ha
  pest or weed control at 31 g/ha: 95%
[4]; 62 g ai/ha
  pest or weed control at 62 g/ha: 98%
[4]; 125 g ai/ha
  pest or weed control at 125 g/ha: 100%
[5]; 31 g ai/ha
  pest or weed control at 31 g/ha: 40%
[5]; 62 g ai/ha
  pest or weed control at 62 g/ha: 50%
[5]; 125 g ai/ha
  pest or weed control at 125 g/ha: 90%
[6]; 31 g ai/ha
  pest or weed control at 31 g/ha: 100%
[6]; 62 g ai/ha
  pest or weed control at 62 g/ha: 100%
[6]; 125 g ai/ha
  pest or weed control at 125 g/ha: 100%
[7]; 31 g ai/ha
  pest or weed control at 31 g/ha: 45%
[7]; 62 g ai/ha
  pest or weed control at 62 g/ha: 85%
[7]; 125 g ai/ha
  pest or weed control at 125 g/ha: 98%
[8]; 31 g ai/ha
  plant injury at 31 g/ha: 100%
[8]; 62 g ai/ha
  plant injury at 62 g/ha: 100%
[8]; 125 g ai/ha
  plant injury at 125 g/ha: 100%
[8]; 250 g ai/ha
  plant injury at 250 g/ha: 100%
[9]; 31 g ai/ha
  pest or weed control at 31 g/ha: 100%
[9]; 62 g ai/ha
  pest or weed control at 62 g/ha: 100%
[9]; 125 g ai/ha
  pest or weed control at 125 g/ha: 100%
[10]; 31 g ai/ha
  pest or weed control at 31 g/ha: 85%
[10]; 62 g ai/ha
  pest or weed control at 62 g/ha: 100%
[10]; 125 g ai/ha
  pest or weed control at 125 g/ha: 100%
[10]; 250 g ai/ha
  pest or weed control at 250 g/ha: 100%
Soybean (Glycine max); 31 g ai/ha
  plant injury at 31 g/ha: 60%
Soybean (Glycine max); 62 g ai/ha
  plant injury at 62 g/ha: 80%
Soybean (Glycine max); 125 g ai/ha
  plant injury at 125 g/ha: 90%
Soybean (Glycine max); 250 g ai/ha
  plant injury at 250 g/ha: 95%
[11]; 31 g ai/ha
  pest or weed control at 31 g/ha: 100%
[11]; 62 g ai/ha
  pest or weed control at 62 g/ha: 100%
[11]; 125 g ai/ha
  pest or weed control at 125 g/ha: 100%
[11]; 250 g ai/ha
  pest or weed control at 250 g/ha: 100%
[12]; 31 g ai/ha
  pest or weed control at 31 g/ha: 100%
[12]; 62 g ai/ha
  pest or weed control at 62 g/ha: 100%
[12]; 125 g ai/ha
  pest or weed control at 125 g/ha: 100%
[12]; 250 g ai/ha
  pest or weed control at 250 g/ha: 100%
[13]; 31 g ai/ha
  plant injury at 31 g/ha: 5%
[13]; 62 g ai/ha
  plant injury at 62 g/ha: 40%
[13]; 125 g ai/ha
  plant injury at 125 g/ha: 50%
[13]; 250 g ai/ha
  plant injury at 250 g/ha: 90%
[14]; 31 g ai/ha
  pest or weed control at 31 g/ha: 50%
[14]; 62 g ai/ha
  pest or weed control at 62 g/ha: 50%
[14]; 125 g ai/ha
  pest or weed control at 125 g/ha: 60%
[14]; 250 g ai/ha
  pest or weed control at 250 g/ha: 60%
[15]; 31 g ai/ha
  pest or weed control at 31 g/ha: 70%
[15]; 62 g ai/ha
  pest or weed control at 62 g/ha: 90%
[15]; 125 g ai/ha
  pest or weed control at 125 g/ha: 95%
[15]; 250 g ai/ha
  pest or weed control at 250 g/ha: 95%
Kochia (Kochia scoparia); 31 g ai/ha
  pest or weed control at 31 g/ha: 5%
Kochia (Kochia scoparia); 62 g ai/ha
  pest or weed control at 62 g/ha: 70%
Kochia (Kochia scoparia); 125 g ai/ha
  pest or weed control at 125 g/ha: 80%
Kochia (Kochia scoparia); 250 g ai/ha
  pest or weed control at 250 g/ha: 90%
[16]; 31 g ai/ha
  pest or weed control at 31 g/ha: 70%
[16]; 62 g ai/ha
  pest or weed control at 62 g/ha: 80%
[16]; 125 g ai/ha
  pest or weed control at 125 g/ha: 95%
[16]; 250 g ai/ha
  pest or weed control at 250 g/ha: 100%
[17]; 31 g ai/ha
  pest or weed control at 31 g/ha: 65%
[17]; 62 g ai/ha
  pest or weed control at 62 g/ha: 75%
[17]; 125 g ai/ha
  pest or weed control at 125 g/ha: 90%
[17]; 250 g ai/ha
  pest or weed control at 250 g/ha: 98%
Wild oat (Avena fatua); 31 g ai/ha
  pest or weed control at 31 g/ha: 0%
Wild oat (Avena fatua); 62 g ai/ha
  pest or weed control at 62 g/ha: 0%
Wild oat (Avena fatua); 125 g ai/ha
  pest or weed control at 125 g/ha: 0%
Wild oat (Avena fatua); 250 g ai/ha
  pest or weed control at 250 g/ha: 5%
[18]; 31 g ai/ha
  pest or weed control at 31 g/ha: 0%
[18]; 62 g ai/ha
  pest or weed control at 62 g/ha: 0%
[18]; 125 g ai/ha
  pest or weed control at 125 g/ha: 5%
[18]; 250 g ai/ha
  pest or weed control at 250 g/ha: 5%
other
  melting point: 141 to 145 °C
